Data on 2 compounds can be found in patent US20060205031A1, “Newly identified cholinephosphotransferases and ethanolaminephosphotransferases” (1) Universiteit Utrecht Holding B.V., priority 2003, published 2006).

One experiment has as its target T1, human SMS1 (Homo sapiens, UniProt Q86VZ5).
T1 construct: members for which full-length cDNAs could be obtained were cloned into a yeast multicopy, GALL promotor plasmid; His tag (from vector pYES2.1/V5-His-TOPO) (C); made in house; host or cells: Saccharomyces cerevisiae strain IAY11 (unpurified post-nuclear lysate)
T1 sequence (Q86VZ5 1-413): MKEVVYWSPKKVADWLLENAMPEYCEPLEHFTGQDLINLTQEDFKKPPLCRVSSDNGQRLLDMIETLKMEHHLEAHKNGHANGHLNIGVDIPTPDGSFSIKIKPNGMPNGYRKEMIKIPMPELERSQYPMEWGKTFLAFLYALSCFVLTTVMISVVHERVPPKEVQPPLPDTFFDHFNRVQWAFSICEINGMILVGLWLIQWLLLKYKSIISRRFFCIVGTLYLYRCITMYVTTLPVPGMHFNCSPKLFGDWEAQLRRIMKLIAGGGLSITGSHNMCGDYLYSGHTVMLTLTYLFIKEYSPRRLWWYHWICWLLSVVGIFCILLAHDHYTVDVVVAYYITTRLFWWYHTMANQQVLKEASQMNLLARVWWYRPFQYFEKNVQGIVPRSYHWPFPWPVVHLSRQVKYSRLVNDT
The experiment in a line: SM synthase assay on lysates of SMS1-expressing yeast cells. It counts as biochemical. Further details: extent of inhibition of SMS1-mediated SM synthesis: dose or concentration left out as unconfirmed. How it is done: (§1) CSS-expressing yeast cells were lysed at 100 OD600/ml by bead bashing at 4° C. in RB1 buffer (120 mM K-glutamate, 15 mM KCl, 5 mM NaCl, 2 mM MnCl2, 2 mM MgCl2, 20 mM Hepes-KOH, pH 7.2) containing freshly added protease inhibitors (Holthuis et al., (1998).
(§2) Lysates were centrifuged at 700 g for 10 min at 4° C. and supernatants (0.25 ml per reaction) preincubated with NEM (1 mM) for 10 min at 37° C. The reaction was initiated by addition of 5 nmol of NBD-Cer in 0.1 ml RB1 buffer and incubation continued for 15 min. Lipids were extracted by addition of 1.7 ml chloroform:methanol (1:2.2), dried under N2 and subjected to butanol/water partitioning. Lipids recovered from the butanol phase were separated by one-dimensional TLC for 30 min in solvent I: chloroform/methanol/4.2 M NH4OH (9:7:3, v/v), followed by 30 min in solvent II: chloroform/methanol/acetic acid (45:30:7, v/v). Fluorescent images were recorded on a STORM 860 Imaging Analysis System (Molecular Dynamics, Sunnyvale, Calif.) and analysed with ImageQuant software.

Another experiment addresses T2, human SMS2 (Homo sapiens, UniProt Q8NHU3).
T2 construct: members for which full-length cDNAs could be obtained were cloned into a yeast multicopy, GALL promotor plasmid; His tag (from vector pYES2.1/V5-His-TOPO) (C); made in house; host or cells: Saccharomyces cerevisiae strain IAY11 (unpurified post-nuclear lysate)
T2 sequence (Q8NHU3 1-365): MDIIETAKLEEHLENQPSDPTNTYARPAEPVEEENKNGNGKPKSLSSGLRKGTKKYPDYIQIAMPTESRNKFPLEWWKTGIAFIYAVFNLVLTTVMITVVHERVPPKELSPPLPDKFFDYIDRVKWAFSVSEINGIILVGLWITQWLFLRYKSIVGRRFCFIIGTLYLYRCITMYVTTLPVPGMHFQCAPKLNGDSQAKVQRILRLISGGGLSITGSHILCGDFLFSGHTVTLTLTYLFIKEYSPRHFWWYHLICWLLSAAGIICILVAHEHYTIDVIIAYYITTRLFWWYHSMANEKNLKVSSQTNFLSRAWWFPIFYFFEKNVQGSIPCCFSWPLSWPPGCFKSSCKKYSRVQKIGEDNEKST
Put plainly: SM synthase assay on lysates of SMS2-expressing yeast cells. The experiment is classed as biochemical. The method, then: as §1, §2

In experiment [1] the test system is Mammalian SM synthase. To be noted: Luberto and Hannun, 1998; cited from earlier work.
The subject of the next experiment is yeast-associated SMase. Put plainly: NBD-SM incubated with yeast cell lysates, TLC of reaction products. The experiment is classed as biochemical. As to conditions: NEM 1 mM, NBD-SM 1.8 μM, 30 min at 37° C. The method, then: (§3) FIG. 3. NEM inhibits yeast-associated SMase but not mammalian SM synthase. (A) TLC separation of reaction products generated when NBD-SM (1.8 μM) was incubated with lysates of exponentially grown yeast cells (20 OD600 cells) in the presence (+) or absence (−) of N-ethylmaleimide (NEM; 1 mM). Reactions were in 0.35 ml RB1 buffer containing 1 μg/ml of IPC synthase inhibitor (aureobasidin A) and incubated for 30 min at 37° C. (B) TLC separation of reaction products generated when NBD-ceramide (NBD-Cer; […]) was incubated with lysates of HeLa cells (1/1: 2×10^6 cells; 1/4: 0.5×10^6 cells) in the presence (+) or absence (−) of NEM (1 mM). Reactions were in 0.35 ml PNS buffer, and incubated for 30 min at 37° C. Lipid extraction and TLC analysis were as described in Materials and methods.

The test system of experiment [2] is mammalian SM synthase. Put plainly: NBD-ceramide incubated with HeLa cell lysates, TLC of reaction products. It counts as biochemical, human. To be noted: NEM 1 mM, 30 min at 37° C. How it is done: as §3

SMILES strings stand for the structures.

Regarding `S=C([S-])OC1CC2CC1C1CCCC21.[K+]` (stereo not shown) [D609, O-tricyclo[5.2.1.0^2,6]dec-9-yl dithiocarbonate potassium salt], the “inhibition of SM synthesis (in words)” value at human SMS1 and against human SMS2 was “inhibited SM synthesis in a dose-dependent manner” in each case. Moreover, the “extent of inhibition of SMS1-mediated SM synthesis” value on human SMS1 (D609) came out at 50%. For the same compound, the “sensitivity of SMS2 to the drug relative to SMS1” value at human SMS2 is given as “two-fold less sensitive”. Further, in the experiment on Mammalian SM synthase [1], the “sensitivity of mammalian SM synthase” value is “sensitive”.
With `CCN1C(=O)C=CC1=O` [NEM, N-ethylmaleimide], the “effect on yeast-associated SMases” value in the experiment on yeast-associated SMase is “potent inhibitor”. Also, the “effect on mammalian SM synthase” value in the experiment with mammalian SM synthase [2] is “does not affect”.
